Measurements reported in patent US9308244B2, “Combination therapy using active immunotherapy” (immatics Biotechnologies GmbH, priority 2007, dated 2016).
Like-named read-outs stand apart in the source and are kept apart here.

Experiments:
[1] = test system: HLA-A*02+ PBMCs (CD4+ and CD8+ effector cells); settings: HLA-mismatched target cells, seven days, increasing TKI concentrations
Protocol: Two fresh buffy coat (HLA-A*02+ and HLA-A*02−) were obtained from the Katharinenhospital Stuttgart. PBMCs were isolated by standard density gradient isolation and incubated overnight in T-cell medium (TCM) for human in vitro priming as in WP03 #4. Ca2+ and Mg2+ free PBS (Cambrex) washed HLA-A*02+ PBMCs were labeled at 1×10^7 cells/ml with 1 μM CFSE (Fluka, Buchs, Germany) at 37° C. for 4 minutes. Labeling was stopped by adding the same volume heat inactivated FCS (Invitrogen) and labeled cells were washed in TCM. Irradiation of target or feeder cells, if indicated, was performed at 33 Gy using a 1000 Elite gammacell (MDS Nordion, Ottawa, Canada). Stock solutions of sorafenib tosylate and sunitinib malate were prepared in DMSO (Merck, Darmstadt, Germany) and frozen aliquoted at −80° C. Mixed lymphocyte reactions were performed by coculturing 2×10^5 CFSE labeled effector plus 2×10^5 irradiated target cells as indicated per well of 96 well round bottom plates in 200 μl TCM in the presence of indicated concentrations of sorafenib, sunitinib or DMSO at 37° C. and 5% CO2 (day 1). On day 4, 100 μl supernatant was removed and 100 μl TCM supplemented with the original concentration of TKIs was added. […] Cells were washed, fixed in PFEA containing 1% formaldehyde (Fluka) and analyzed on a FACSCalibur (BD). […]

[2] = test system: OVA-001 specific CD8+ T-cells; assay type: in vivo, C57BL/6 mice; settings: continuous treatment, OVA-001 immunized
[3] = Protocol: Female C57BL/6 mice (20-25 g, Harlan Winkelmann GmbH, Borchen, Germany) were used for all experiments described in this section. Animals were kept in the animal facility of the Dept. of Immunology at the University of Tuebingen. Animals were cared for by trained animal keepers and health status of animals was supervised by the veterinaries of the University of Tübingen. Feeding with drug was also performed in part by the local animal keepers after special training. All animals were supplied with water and food ad libitum. The described experiments were performed according to procedure no. IM1/06 approved by the Regierungsprasidium Tuebingen.
A liquid, viscous vehicle composed of 30% (w/v) Cremophor EL (Sigma, Deisenhofen, Germany), 30% (w/v) PEG 400 (Sigma, Deisenhofen, Germany), 10% ethanol p.a., 10% glucose was used. Sunitinib and sorafenib were suspended in vehicle according to the planned dosages in a way that […] body weight had to be applied to all mice, according to approx. 50 μl of suspension. Feasible aliquots were prepared from suspensions and from vehicle and stored until use at −20° C. in the dark. Thawed substance was stored at 4° C. and used within the next three days. Animals were weighed before start of treatment and thereafter weekly. The deduced dosage was applied daily using a 1 ml syringe with gavage into the backward cavity of the mouth of the animal without anesthesia. Drug delivery into blood plasma was controlled as described in example 1.
1) Immunization under continuous treatment with tyrosine kinase inhibitors. Pretreatment phase was two weeks (see FIG. 5A). […]
3) The experimental design was identical to a) Beside negative and positive control groups, groups treated with 60 mg/kg body weight sorafenib, and 20 and 40 mg/kg body weight sunitinib were included (6 mice per group). For spleen cells, CD4, Tregs, CD8 cells, and B cells were assessed, for PBMCs CD4, CD8, B cells and Tregs were analyzed.

[4] = HPLC quantification of TKI plasma levels in mouse models; assay type: in vivo; settings: oral dosing
Protocol: The proteins were precipitated with 40 μl 100% acetonitril (Acros, Geel, Belgium), centrifuged and filtered through a 0.2 μm PVDF filter. 10 μl was directly injected to the HPLC system.
The HPLC system consisted of a Binary HPLC pump (Shimadzu LC10aVP), a Shimadzu SIL-10aVP autosampler, a Shimadzu CTO-10asVP column oven and a Shimadzu SPD10aVP detector. Data acquisition and analysis was performed using the Shimadzu Class-VP 7.3 software. Chromatographic separation was carried out on a reverse phase C18 column (Reprosil Pur ODS-3μ, 60×2 mm). To protect the analytical column a guard column has been used (Reprosil Pur ODS-5μ, 10×2 mm). Eluent A consisted of water (LCMS grade, Acros, Geel, Belgium), modified by 0.1% formic acid (Merck, Darmstadt, Germany) and eluent B was 80% acetonitril (Acros, Geel, Belgium) with 0.1% formic acid (Merck, Darmstadt, Germany).
The following gradient was used: 5 min 25% eluent B, 15 min 62.5% eluent B, 6 min 80% eluent B and 5 min 80% eluent B. The temperature of the autosampler was kept at 4° C. The temperature of the column was maintained at 30° C. The detection wavelength was set at 400 nm, the injection volume was 10 μl. The column was equilibrated with the mobile phase at a flow rate 0.5 ml/min.
For Sorafenib analysis, 10 μl of 50% acetonitril (Acros, Geel, Belgium) was added to 50 serum or medium in 0.5 ml PCR tubes and mixed for 10 seconds. […]

C57BL/6 T cells = experiment: Mouse mixed lymphocyte reaction (CFSE-labeled C57BL/6 spleen cells vs irradiated BALB/c splenocytes); assay type: cell-based; settings: sorafenib: at concentration near the steady-state plasma level of treated patients
Protocol: CFSE-labeled spleen cells from C57BL/6 (H2-b) mice were co-cultured with irradiated splenocytes from BALB/c (H2-d) mice, resulting in the strong allogenic response and proliferation of the C57BL/6 T cells against H2-d MHC molecules. The proliferation of the T cells results in a diminished CFSE staining of the divided cells. Percentage of divided cells and their number of divisions can be analyzed by flow cytometry.
Spleen cells were prepared from 1 C57BL/6 mouse and 1 BALB/c mouse (Harlan Winkelmann GmbH, Borchen, Germany). BALB/c cells were irradiated with 33 Gy. Effectors (C57BL/6) were adjusted to 20 Mio cells/ml. A 2 mM 5(6)-Carboxyfluorescindiacetate-N-succinimidylester (CFSE, Fluka, Buchs, Switzerland) solution in PBS was freshly prepared from a 10 mM DMSO stock solution. The cell suspension was mixed 1:1 with the CFSE solution. After incubation at 37° C. for 4 min, reaction was stopped by addition of fetal calf serum (Biochrom, Berlin, Germany), and free CFSE was washed out. 2×10^5 stimulator cells (BALB/c) were plated into cavities of a 96-well round-bottom plate. 1×10^5 or 2×10^5 CFSE-labeled effector cells and tyrosine kinase inhibitors at two different concentrations were added. Appropriate positive and negative controls were included. All cultures were in 200 μl T-cell medium with 0.1% (v/v) DMSO for 5 or 7 days without further medium change. Thereafter, cells were stained with fluorescently labelled anti-CD4-PerCP and anti-CD8-FITC antibodies (both BD Biosciences, Heidelberg, Germany) and analyzed by flow cytometry.
The experiment described above was repeated with the exception that a 96-well flat-bottom plate was used for mixed lymphocyte reactions (MLRs), a syngenic control with irradiated C57BL/6 cells was included, more concentrations of inhibitors were assessed, and all groups were analyzed in triplicates.
During cultivation, half of the medium was replaced with fresh appropriate medium supplemented with final concentrations of tyrosine kinase inhibitors every day, and proliferation was analyzed at day 7 only. Additionally cells were stained for H2-Kb to clearly identify effector cells in a further dimension.

A498 tumor cells = settings: A498, 24 h; 13 μM sorafenib or 250 nM sunitinib; normal medium control = 100%

CCN(CC)CCNC(=O)c1c(C)[nH]c(/C=C2\C(=O)Nc3ccc(F)cc32)c1C [Sunitinib]
Proliferation of CD8+ and CD4+ effector cells [1]: No effect
OVA-001 specific CD8+ T-cells, mean ([2]; 20 mg/kg bw, n=12): 3.47%
OVA-001 specific CD8+ T-cells, mean ([2]; 40 mg/kg bw, n=6): 2.73%
OVA-001 specific CD8+ T-cells, mean ([2]; 80 mg/kg bw, n=2): 0.51%
Deaths ([3]; 80 mg/kg sunitinib, experiment one): 2 out of 6
Inflamed lesions of injections sites ([3]; mouse, in vivo): frequently observed
Bioavailability / plasma levels at the used doses [4]: confirmed to reach plasma levels shown by others to be effective in tumor growth inhibition
Drug-related toxicity for cells in mixed lymphocyte reactions (summary) (C57BL/6 T cells): no drug-related toxicity was observed
% Expression relative to control: ADFP (A498 tumor cells): 87%
% Expression relative to control: APOL1 (A498 tumor cells): 62%
% Expression relative to control: CCND1 (A498 tumor cells): 93%
% Expression relative to control: GUCY1A3 (A498 tumor cells): 57%
% Expression relative to control: HLA-A (A498 tumor cells): 93%
% Expression relative to control: HLA-B (A498 tumor cells): 76%
% Expression relative to control: HLA-C (A498 tumor cells): 87%
% Expression relative to control: MET (A498 tumor cells): 41%
% Expression relative to control: MMP7 (A498 tumor cells): 31%
% Expression relative to control: MUC1 (A498 tumor cells): 54%
% Expression relative to control: PSMB8 (A498 tumor cells): 87%
% Expression relative to control: PSMB9 (A498 tumor cells): 132%
% Expression relative to control: TAP1 (A498 tumor cells): 123%
